Results as given in patent US11285130B2, “Treatment of mitochondrial diseases” (Khondrion IP B.V., priority 2017, dated 2022).
pEC50: −log10 of the molar value. Like-named read-outs stand apart in the source and are kept apart here.

Tests used:
[1] = system: primary human fibroblasts from patients with Leigh syndrome; test: Oxidative stress-induced cell death (BSO) assay, Leigh patient fibroblasts; assay type: cell-based
Excerpt: (§1) To determine the effective concentration of the compounds (the concentrations that protect patient cells against oxidative stress-induced cell death) the applicant established an assay using stressed primary human fibroblasts from patients with Leigh syndrome, MELAS or LHON diseases. Utilising the inherent oxidative stress of fibroblasts from patients with mitochondrial disease, their oxidative burden was further increased by depleting cellular glutathione with an inhibitor of glutathione synthesis, L-buthionine-(S,R)-sulfoximine (BSO). […] Cells were seeded at a density of 3000 cells/well in a 96-well format and incubated with increasing concentrations of compounds in combination with BSO (100 μM, Sigma-aldrich). One day after treatment, the cells were washed twice and stained with a solution of 5 μM calcein-AM (Life technologies C3100MP) during 25 min in 199 medium without phenol red (Life technologies, 11043-023) at room temperature. After 2 washes with PBS (Phosphate buffered saline) the plate was read on a fluorescence plate reader (Fluostar Omega, BMG labtech) and the percentage of cell viability determined as a function of fluorescence intensity.

[2] = system: primary human fibroblasts from patients with LHON; test: Oxidative stress-induced cell death (BSO) assay, LHON patient fibroblasts; assay type: cell-based; conditions: fibroblasts derived from LHON patients, 100 μM BSO; read-out: EC50, protection from oxidative stress-induced cell death
Excerpt: as §1

[3] = SAD study pharmacokinetic analysis; assay type: in vivo, human
Description: (§2) Dose escalation to the next dose level was done after evaluation of the safety and the first 24-hour pharmacokinetic results of the previous dose. […] Anticipated exposures at this starting dose were just below the Minimum Anticipated Biological Effect Level (MABEL). Placebo (an in taste and appearance matching oral liquid) was also administered orally on one occasion in the single-ascending dose part and b.i.d. for 7 Days in the MAD part. […] All samples were stored at <-70° C. until analysis. […] For mean value calculations, all values below the limit of quantification (LOQ) were set to zero. […] The non-compartmental pharmacokinetic analysis was performed using Phoenix, Version 6.3 (Pharsight Corporation, Mountain View, Calif., USA). […] The PK parameters were calculated on the basis of the actual blood sampling time points relative to dosing. Selected pharmacokinetic parameters (Cmax, tmax, t1/2, AUClast and AUC0-int) following single-dose administration and selected pharmacokinetic parameters Cmax, tmax, [NT], the accumulation factor (Racc) and time to reach steady state) following multiple dose administration were determined. In urine, the percentage of dose excreted in urine was determined for the single- and multiple-dose administration.

[4] = MAD study pharmacokinetic analysis; assay type: in vivo, human; conditions: for AUCtau (Geomean) / Cmax (Geomean) / tmax* (median) / Racc (accumulation ratio, Geomean): MAD
Description: as §2

[5] = system: primary human fibroblasts from patients with MELAS; test: Oxidative stress-induced cell death (BSO) assay, MELAS patient fibroblasts; assay type: cell-based; conditions: fibroblasts derived from MELAS patients, 100 μM BSO; read-out: EC50, protection from oxidative stress-induced cell death
Excerpt: as §1

## COC1=C(OC)C(=O)C(CCCCCCCCCCO)=C(C)C1=O [Idebenone, reference compound]
[1]; Homo sapiens, in vitro fibroblast assays (Redox assay), fibroblast type not given, values match Leigh, read-out: EC50
  pEC50: 5.83

## CC1=C(C)C(=O)C(CC[C@](C)(O)C(=O)N[C@@H]2CCCNC2)=C(C)C1=O [KH176m]
[2]
  pEC50: 8.40
[3]; 100 mg, fed versus fasted
  AUC0-inf ratio (fed/fasted), 90% CI: 0.90 (90% Cl 0.57-1.41)
[3]; SAD, KH176 10 mg, fasted
  AUC0-inf (Geomean): 234 ng·h/mL
  AUClast (Geomean): 151 ng·h/mL
  Cmax (Geomean): 14.2 ng/mL
  t1/2 (Geomean): 16.6 h
  tmax* (median): 1.25 h
[3]; SAD, KH176 30 mg, fasted
  AUC0-inf (Geomean): 881 ng·h/mL
  AUClast (Geomean): 547 ng·h/mL
  Cmax (Geomean): 49.4 ng/mL
  t1/2 (Geomean): 17.8 h
  tmax* (median): 1.50 h
[3]; SAD, KH176 100 mg, fasted
  AUC0-inf (Geomean): 2690 ng·h/mL
  AUClast (Geomean): 1810 ng·h/mL
  Cmax (Geomean): 168 ng/mL
  t1/2 (Geomean): 15.4 h
  tmax* (median): 1.25 h
[3]; SAD, KH176 100 mg, fed
  AUC0-inf (Geomean): 2410 ng·h/mL
  AUClast (Geomean): 1590 ng·h/mL
  Cmax (Geomean): 117 ng/mL
  t1/2 (Geomean): 14.9 h
  tmax* (median): 2.50 h
[3]; SAD, KH176 300 mg, fasted
  AUC0-inf (Geomean): 6890 ng·h/mL
  AUClast (Geomean): 4830 ng·h/mL
  Cmax (Geomean): 497 ng/mL
  t1/2 (Geomean): 14.3 h
  tmax* (median): 1.24 h
[3]; SAD, KH176 800 mg, fasted
  AUC0-inf (Geomean): 18700 ng·h/mL
  AUClast (Geomean): 11700 ng·h/mL
  Cmax (Geomean): 1100 ng/mL
  t1/2 (Geomean): 17.2 h
  tmax* (median): 1.50 h
[3]; SAD, KH176 2000 mg, fasted
  AUC0-inf (Geomean): 41300 ng·h/mL
  AUClast (Geomean): 23900 ng·h/mL
  Cmax (Geomean): 1780 ng/mL
  t1/2 (Geomean): 18.9 h
  tmax* (median): 1.75 h
[3]; SAD, approximate, across dose groups
  t1/2: approximately 16 h
[3]; fasted condition (100 mg)
  median tmax: approximately 1 h
[3]; fed condition (100 mg, high calorie/high fat breakfast)
  median tmax: 2.5 h
[4]; KH176 100 mg b.i.d, Day 1
  AUCtau (Geomean): 702 ng·h/mL
  Cmax (Geomean): 99.4 ng/mL
  tmax* (median): 1.50 h
[4]; KH176 100 mg b.i.d, Day 7
  AUCtau (Geomean): 1310 ng·h/mL
  Cmax (Geomean): 152 ng/mL
  Racc (accumulation ratio, Geomean): 1.86
  tmax* (median): 1.00 h
[4]; KH176 200 mg b.i.d, Day 1
  AUCtau (Geomean): 1680 ng·h/mL
  Cmax (Geomean): 251 ng/mL
  tmax* (median): 1.75 h
[4]; KH176 200 mg b.i.d, Day 7
  AUCtau (Geomean): 2220 ng·h/mL
  Cmax (Geomean): 250 ng/mL
  Racc (accumulation ratio, Geomean): 1.32
  tmax* (median): 1.50 h
[4]; KH176 400 mg b.i.d, Day 1
  AUCtau (Geomean): 3600 ng·h/mL
  Cmax (Geomean): 550 ng/mL
  tmax* (median): 1.25 h
[4]; KH176 400 mg b.i.d, Day 7
  AUCtau (Geomean): 4270 ng·h/mL
  Cmax (Geomean): 450 ng/mL
  Racc (accumulation ratio, Geomean): 1.19
  tmax* (median): 1.50 h
[4]; steady state, 100 mg BID
  AUCtau (one dosing interval, 12 hours), range: 851 to 1570 ng·h/mL
  average concentrations, range: 70.9 to 130.8 ng/mL
[4]; steady state, 100 mg BID, healthy subjects
  maximum concentration, range: 89.4 to 204 ng/mL
[5]
  pEC50: 7.85
[1]; fibroblasts derived from Leigh patients, 100 μM BSO, one day, calcein-AM viability, read-out: EC50 (half maximum effective concentration), protection from oxidative stress-induced cell death
  pEC50: 7.80
[1]; in vitro fibroblast assays (Redox assay), fibroblast type not given, values match Leigh
  EC50 expressed in ng/mL: around 5.8 ng/mL
[1]; in vitro fibroblast assays (Redox assay), fibroblast type not given, values match Leigh, read-out: EC50
  pEC50: 7.80
